Measured values: patent US6046231A, “Use of 4'-bromoflavone in a cancer chemopreventative composition and method” (The Board of Trustees of the University of Illinois, priority 1999, dated 2000)
“Also recorded” adds a separate entry of the source.

Tests used:
glutathione (GSH) = experiment: Induction of glutathione (GSH) in mouse liver and mammary glands (Table 3); type: in vivo
glutathione (GSH) level = experiment: Glutathione (GSH) level in rat tissues after dietary administration; type: in vivo, Sprague Dawley rat
Protocol: Analysis of Quinone Reductase Activity and Glutathione Level in Rat Tissues. Spraque Dawley rats (n=10) at 43 days of age were placed on an appropriate experimental diet (5000, 2500, 1250, 625, and 312.5 mg/kg diet of 4'-BF) for three weeks. After three weeks, animals were sacrificed by carbon dioxide (CO2) asphyxiation. The livers, mammary glands, colons, stomachs, and lungs were collected, rinsed with saline, and frozen in liquid nitrogen and stored at -80° C. until enzyme activities were determined. Individual tissues (except mammary glands) were homogenized in 0.25 M sucrose and centrifuged at 15,000×g for 30 min at 4° C. The supernatant fluids were collected, 20% volume of 0.1 M CaCl2 in 0.25 M sucrose were added. After incubation at 0° C. for 30 min and further centrifuging at 15,000×g for 30 min at 4° C., a clear cytosolic fraction was used for enzyme assay. Mammary glands of each animal were pooled, homogenized in 1 ml ice-cold 0.1 M phosphate buffer pH 6.5 and centrifuged (15,000×g, 30 min at 4° C.), a clear supernatant suitable for enzyme assay resulted. Dicumarol-sensitive QR activity was measured in duplicate in 50 μl of suitable dilution of the tissue supernatant as described for the cellular system. GSH levels were assayed in duplicate using 96-well plates. […] The plates were shaken for 5-10 min and the extent of 2-nitro-5-thiobenzoic acid formation was monitored at 405 nm. A GSH standard curve was used to calculate the GSH content. GSH levels were expressed as nmol/mg protein.
Induction of Quinone Reductase Activity and Glutathione Level in Rat Tissues. Based on the results in cell cultures, 4'-BF was further evaluated for its inducing potency in rat liver, mammary gland, colon, stomach, and lung. […] The concentration of 4'-BF for maximum induction of GSH was about 1250 to about 2500 mg/kg diet, but varied for different organ sites.

[1] = system: DMBA-induced mammary tumors; experiment: Inhibition of DMBA-induced mammary carcinogenesis in rats; type: in vivo, female Sprague Dawley rat; conditions: for tumor multiplicity (FIG. 9): control 2.63; for mammary tumor multiplicity: control 2.75; for mammary tumor incidence: control 88.9%; for tumor incidence (FIG. 9): control 89.5
Protocol: Inhibition of DMBA-induced Mammary Carcinogensis in Rats. On the basis of a 3-week feeding study, maximum tolerated doses were evaluated, and suitable doses were selected for the study of inhibition of DMBA-induced mammary carcinogenesis in rats. Virgin, female Sprague Dawley rats were obtained from Harlan/Sprague-Dawley at 35 days of age. All animals were placed on a diet of Teklad 4% Rat/Mouse chow at this time. After a quarantine period of 1 week, at 42 days of age, the animals were randomized by weight into six groups and placed on the appropriate experimental diet containing 2000 and 4000 mg 4'-bromoflavone/kg diet. At 50 days of age, the animals received a single i.g. dose of 15 mg of DMBA in sesame oil (or vehicle only) following an overnight fast. The rats were maintained on the 4'-bromoflavone diet for one additional week, and then returned to the basal diet without test agent at 57 days of age. During the experiment, all animals were weighed weekly. Palpation for mammary tumors began 3 weeks after the animals received the DMBA, and continued until termination of the study (120 days post DMBA). The date of appearance and location of all tumors was recorded. Animals were observed twice daily to assess their general health. Moribund animals were sacrificed by CO2 asphyxiation. Moribund animals or animals found dead were necropsied immediately. At the termination of the experiment, all mammary tumors were excised and weighed, and mean tumor weight was established. Tumors for Group 2-5 were frozen. The abdominal/inguinal glands of Group 8 were disected free of lymph nodes; one side was frozen, the other side was fixed. Incidence was evaluated with Fisher's exact test and the Logrank test was used for tumor incidence rate. Tumor multiplicity was calculated using Armitage's test for trends in proportions. Latency and tumor weight were evaluated by an unpaired t-test. Survival was analyzed with log-rank analysis.
Inhibition of DMBA-induced Mammary Tumor Carcinogenesis in Rat. Maximum dose tolerance (MDT) studies (data not included) were performed prior to conducting the chemopreventative studies of 4'-BF in animals. Briefly, a test agent was examined in a three-week study to determine the maximum dose that can be administered without causing suppression of body weight gain or inducing other gross manifestations of toxicity and to determine the effective dose in term of induction of phase II detoxifying enzymes. According to the MDT study, two doses of 4'-BF (2000 and 4000 mg/kg diet) were used for the chemopreventative studies.

Compound: O=c1cc(-c2ccc(Br)cc2)oc2ccccc12 [4'-Bromoflavone]
- GSH (Treated/Control), Liver (glutathione (GSH); liver): 2.11
- GSH (Treated/Control), Mammary Gland (glutathione (GSH); mammary gland): 1.77
- GSH level increase, colon (glutathione (GSH) level; colon, dietary): 1.40-1.72 fold
- glutathione levels in rat tissues (glutathione (GSH) level; liver, mammary gland, colon, stomach, lung, short-term dietary, P<0.0001): significantly increased
- GSH level increase, liver (glutathione (GSH) level; liver, dietary): 1.62-1.83 fold
- GSH level increase, lung (glutathione (GSH) level; lung, dietary): 1.09-1.42 fold
- GSH level increase, mammary gland (glutathione (GSH) level; mammary gland, dietary): 1.01-1.28 fold
- GSH level increase, stomach (glutathione (GSH) level; stomach, dietary): 1.16-1.17 fold
- tumor multiplicity (FIG. 9) ([1]; 2000 mg/kg diet): 0.65 tumors/rat
- mammary tumor multiplicity ([1]; 2000 mg/kg diet): 0.20
- mammary tumor incidence ([1]; 2000 mg/kg diet): 25%
- tumor incidence (FIG. 9) ([1]; 2000 mg/kg diet): 30%
- tumor multiplicity (FIG. 9) ([1]; 4000 mg/kg diet): 0.20 tumors/rat
- mammary tumor multiplicity ([1]; 4000 mg/kg diet): 0.15
- mammary tumor incidence ([1]; 4000 mg/kg diet): 15%
- tumor incidence (FIG. 9) ([1]; 4000 mg/kg diet): 20%
- tumor latency ([1]; 2000 or 4000 mg/kg diet, listed as 4'-BF): enhanced greatly; also recorded: greatly increased the tumor latency (P<0.001); also recorded: significantly increased (P<0.01)
- incidence and multiplicity of mammary tumors ([1]; DMBA-induced): significantly inhibited
